Literature values, collected in US12138235B2, “Cape-loaded targeted microvesicular cancer drug and method for developing the same” (YEDITEPE UNIVERSITESI, priority 2017, dated 2024).

What was measured:
breast cancer stem cells = settings: CAPE 40 μM
[1] = rats
[2] = test system: LNCaP, DU-145 and PC-3 prostate cancer cell lines
[3] = rats, prophylactic administration
[4] = test system: MCF-7, MDA-MB-231 and TNBC breast cancer cell lines; settings: CAPE 40 μM
[5] = test system: ME180 cervical cancer cell lines; settings: CAPE 50 μM
[6] = test system: SH-SY5Y neuroblastoma cell line; settings: CAPE 4-20 μM
[7] = test system: TW2.6 oral squamous cell carcinoma cell line; settings: CAPE 100 μM
[8] = test system: SK-1 Hep1 liver cancer cell line; settings: combined treatment of CAPE 30 μg/ml and TRAIL

SMILES: O=C(/C=C/c1ccc(O)c(O)c1)OCCc1ccccc1 [CAPE, caffeic acid phenethyl ester]
- proliferation of breast cancer stem cells (breast cancer stem cells): inhibits proliferation of breast cancer stem cells
- radiation induced lung injury [1]: decreased radiation induced lung injury
- cell proliferation and Akt signaling pathway [2]: dose-dependently inhibits cell proliferation
- damage caused by doxorubicin in kidney, heart and brain tissues [3]: prevented the damage
- liver damage depending on administration of cisplatin and tamoxifen [3]: prevented the damage
- cell proliferation, cell cycle arrest, apoptosis, angiogenesis [4]: dose-dependently stops cell proliferation, induces cell cycle arrest and apoptosis, and suppresses angiogenesis
- proliferation, cell cycle arrest, apoptosis [5]: prevents proliferation by inducing S and G2/M phase cell cycle arrests and induces apoptosis
- effect in SH-SY5Y cells [6]: no effect was observed
- cell cycle phase populations and apoptosis [7]: decreased G1 phase cell population, increased G2/M phase cell population and induced apoptosis
- caspase activation, cell death receptors, apoptosis [8]: caspase activation increased, cell death receptors were activated via JNK and p38 signaling pathways and apoptosis was induced
